Assay results published in patent US4725578A, “Compounds having therapeutic effect and the preparation thereof” (Tobishi Pharmaceutical Co., Ltd., priority 1986, dated 1988).
“Also recorded” adds a separate entry of the source.

Columns and labels:
[1] = system: Yoshida sarcoma; experiment: Yoshida sarcoma (ip-ip), survival T/C; type: in vivo
Experimental: (§1) In the Table, the symbol T/C % means Treatment/Control %, that is the increase in life when the control is 100. The values are obtained by implanting tumor cells to groups of mice (or rats), administering the compound being tested in various amounts every 24 hours after the implantation of the tumor cells and then calculating the ratio, the median survival time of the group to which the compound has been administered to the survival of the control, multiplied by a factor of 100. This method is used in the screening of U.S. National Cancer Institute.

[2] = system: Colon 26; experiment: Colon 26 (ip-ip), survival T/C; type: in vivo; conditions: 4 mg/kg × 9
Experimental: as §1

[3] = system: P 388; experiment: P 388 (ip-iv), survival T/C; type: in vivo, mice
Experimental: as §1
(§2) In Table 9, "iv" and "sc" means that the administration of the compounds is carried out intravenously and the implantation of the tumor cells is carried out subcutaneously.

[4] = system: MOPC-104E; experiment: MOPC-104E (ip-ip), survival T/C; type: in vivo; conditions: 2 mg/kg × 9 times
Experimental: as §1

[5] = system: MM2; experiment: MM2 (ip-ip), survival T/C; type: in vivo, mice; conditions: for effectiveness against MM2: (see Table 7); for mice continuing to live more than 60 days after implantation (60<): Table 7, MM2 (i.P. - i.P.); for T/C / mice living more than 60 days (60<): additional tests, MM2 (ip-ip)
Experimental: as §1, with “Institute. […]” for “Institute.”
(§3) In Table 7, the symbol "i.P.-i.P." means that the tumor cells are implanted intraperitoneally and the compounds being tested are also administered intraperitoneally. The symbol "TR" is the therapeutic ratio obtained by dividing the dose which provides a maximum T/C value, by the dose which provides a minimum T/C value.
The term in Table 7, last column "3/6 60<", means that 3 mice out of 6 mice continue to live more than 60 days after the implantation of the tumor cells.

[6] = system: P-388 cells; experiment: Antineoplastic action against implanted P-388 cells (ip-ip), survival T/C; type: in vivo, CDFl mice; conditions: for T/C % (Treatment/Control %): Table 6, P388, intraperitoneal
Experimental: To the peritoneal cavity of each group of mice consisting of six CDFl mice per group, 10^6 /0.1 ml of P-388 cells or 10^5 /0.1 ml of L-1210 cells were implanted. […]
In the Table, the symbol T/C % means Treatment/Control %, that is the increase in life when the control is 100. […] This method is used in the screening of U.S. National Cancer Institute.
as §3

[7] = system: L-1210 cells; experiment: Antineoplastic action against implanted L-1210 cells (ip-ip), survival T/C; type: in vivo, CDFl mice
Experimental: In this animal test, the antineoplastic action against the implanted tumor was examined in lower animals, in vivo, in respect of the compounds according to the present invention, by using CDFl mice.
To the peritoneal cavity of each group of mice consisting of six CDFl mice per group, 10^6 /0.1 ml of P-388 cells or 10^5 /0.1 ml of L-1210 cells were implanted. […] While to the control groups of CDFl mice, P-388 and L-1210 cells were implanted in the same manner and they were bred without administration of the compounds.
as §1, §3

[8] = system: B-16 melanoma; experiment: B16 melanoma (ip-ip), survival T/C; type: in vivo, mice; conditions: for effectiveness against B-16 melanoma: (see Table 7)
Experimental: as §1, with “Institute. […]” for “Institute.”
as §3

[9] = system: Lewis Lung Carcinoma; experiment: Lewis Lung Carcinoma (sc-ip), inhibition; type: in vivo; conditions: 8 mg/kg × 11, after 17 days
[10] = Toxicity test, lethal dose (Litchfield-Wilcoxon); type: in vivo, male 4-weeks CD-1 (ICR) mice; conditions: suspension in 0.5% CMC, 7 days observation
Experimental: With respect to the compounds of this invention, the lethal dose was determined as follows.
By using male 4-weeks CD-1 (ICR) mice consisting of 5 to 10 mice per group, the desired amount of each compound of this invention was suspended in 0.5% CMC solution and the resultant suspension was administered to each mouse intraperitoneally or intravenously. Observing the life or death as well as the general symptome during 7 days after the administration of the compounds, the value of LD50 for each compounds was estimated from the lethal population observed on the basis of the Litchfield-Wilcoxon method.

[11] = Neuropharmacological multidimentional observation (modified Arwin and Smith method); type: in vivo, 4-weeks CD-1 (IRC) mice; conditions: intraperitoneal, 1 to 20 mg/kg, observed every 30 minutes for 180 minutes, compared with patterns of known medicines
Experimental: In this test, other pharmacological effects which may be obtained by these compounds were investigated.
Each compound of the invention was intraperitoneally administered to 4-weeks CD-1 (IRC) mice (Nippon Charles Liver K.K.) in the dose of 1 to 20 mg/kg with using mice groups consisting of three mice per group. […] The observation was carried out according to the modified Arwin method and Smith method, i.e., neuropharmacological multidimentional observation method.
Making a comparison between the symptom observed and the pattern of the pharmacological action due to the known medicines, it has been discovered that each compound of the invention has the following pharmacological effect.

[12] = system: Erlich carcinoma; experiment: Erlich carcinoma (sc-ip), inhibition; type: in vivo; conditions: 4 mg/kg × 11, after 14 days
[13] = system: Colon. 38; experiment: Colon. 38 (sc-ip), inhibition; type: in vivo; conditions: 8 mg/kg × 11, after 17 days
[14] = system: P 388; experiment: P 388 (sc-iv), survival T/C; type: in vivo, mice
Experimental: as §1, §2

Row | Structure (SMILES) | effectiveness against MM2 [5] | MM2 (i.P. - i.P.) T/C (%) ([5]; Table 7, dose 0.5 mg/kg) | MM2 (i.P. - i.P.) T/C (%) ([5]; Table 7, dose 2 mg/kg) | T/C % (Treatment/Control %) ([6]; dose 0.05 mg/kg) [%] | T/C % (Treatment/Control %) ([6]; dose 0.5 mg/kg) [%] | T/C % (Treatment/Control %) ([6]; dose 2 mg/kg) [%] | P388 (i.P. - i.P.) T/C (%) ([6]; Table 7, dose 0.05 mg/kg) | P388 (i.P. - i.P.) T/C (%) ([6]; Table 7, dose 0.5 mg/kg) | P388 (i.P. - i.P.) T/C (%) ([6]; Table 7, dose 2 mg/kg) | P388 (i.P. - i.P.) T/C (%) ([6]; Table 7, dose 5 mg/kg) | L1210 (i.P. - i.P.) T/C (%) ([7]; Table 7, dose 0.5 mg/kg) | L1210 (i.P. - i.P.) T/C (%) ([7]; Table 7, dose 2 mg/kg) | effectiveness against B-16 melanoma [8] | B16 (i.P. - i.P.) T/C (%) ([8]; Table 7, dose 0.5 mg/kg) | B16 (i.P. - i.P.) T/C (%) ([8]; Table 7, dose 2 mg/kg) | B16 (i.P. - i.P.) T/C (%) ([8]; Table 7, dose 4 mg/kg) | LD50 and 95% Confidence Limit ([10]; intravenous) | T/C ([3]; 5.56 mg/kg × 9) [%] | T/C % (Treatment/Control %) ([6]; dose 10 mg/kg) [%] | also measured
1 | CCCCCCOc1ccc2cc1Oc1ccc(cc1)CC1C(=O)N(C)C(C2)C(=O)NC(C)C(=O)NC(C)C(=O)N(C)C(Cc2ccc(OC)cc2)C(=O)NC(C)C(=O)N1C (stereo not drawn) [Ex. 2, n-hexylether of the compound TPC-A] | effective | 110.3 | 129.3 | 110.3 | 137.3 | 153.5 | 130.4 | 143.5 | 150.0 | 176.1 | 115.6 | 126.6 | effective | 130.5 | 158.2 | 136.2 | – | – | – | T/C ([1]; 0.1 mg/kg × 5): 129.7%; T/C ([1]; 0.5 mg/kg × 5): 173.6%; T/C ([1]; 1 mg/kg × 5): 160.4%; T/C ([1]; 2.5 mg/kg × 5): 149.5%; T/C [2]: 133.7%; mice living more than 60 days (60<) [2]: 2/6; T/C ([3]; 5 mg/kg × 5): 118.9%; T/C [4]: 145.3%; mice continuing to live more than 60 days after implantation (60<) ([5]; dose 2 mg/kg): 3/6; mice continuing to live more than 60 days after implantation (60<) ([5]; dose 4 mg/kg): 1/7; MM2 (i.P. - i.P.) T/C (%) ([5]; Table 7, dose 4 mg/kg): 161.8%; T/C % (Treatment/Control %) ([6]; dose 4 mg/kg): 173.0%; L1210 (i.P. - i.P.) T/C (%) ([7]; Table 7, dose 4 mg/kg): 130.9%
2 | COc1ccc(CC2C(=O)NC(C)C(=O)N(C)C3Cc4ccc(cc4)Oc4cc(ccc4OC(C)=O)CC(C(=O)NC(C)C(=O)NC(C)C(=O)N2C)N(C)C3=O)cc1 (stereo not drawn) [Ex. 22] | effective | 102.5 | 109.2 | 133.3 | 155.6 | 168.9 | 133.3 | 155.6 | 168.9 | 175.8 | 110.0 | 114.4 | effective | 116.9 | 128.5 | 147.8 | 20.0(15.2-26.3) mg/kg | 171.5 | 194.7 | Inhibition [9]: 65.4%; LD50 and 95% Confidence Limit ([10]; intraperitoneal): 18.4(16.9-20.0) mg/kg; T/C ([3]; 1.11 mg/kg × 9): 112.5%; Pharmacological effect estinated ([11]; listed as Acetic acid ester of TPC-A): emetic action; also recorded: psychotropic action; also recorded: antidiuretic action; Inhibition [12]: 46.9%; MM2 (i.P. - i.P.) T/C (%) ([5]; Table 7, dose 5 mg/kg): 117.8%; MM2 (i.P. - i.P.) T/C (%) ([5]; Table 7, dose 10 mg/kg): 120.9%; P388 (i.P. - i.P.) T/C (%) ([6]; Table 7, dose 10 mg/kg): 194.7%; Inhibition [13]: 51.9%; L1210 (i.P. - i.P.) T/C (%) ([7]; Table 7, dose 0.05 mg/kg): 100.9%; L1210 (i.P. - i.P.) T/C (%) ([7]; Table 7, dose 5 mg/kg): 120.0%; L1210 (i.P. - i.P.) T/C (%) ([7]; Table 7, dose 10 mg/kg): 128.9%; B16 (i.P. - i.P.) T/C (%) ([8]; Table 7, dose 8 mg/kg): 141.1%
3 | COc1ccc(C[C@H]2C(=O)N[C@H](C)C(=O)N(C)[C@@H]3Cc4ccc(cc4)Oc4cc(ccc4O)C[C@H](C(=O)N[C@@H](C)C(=O)N[C@@H](C)C(=O)N2C)N(C)C3=O)cc1.COc1ccc(C[C@H]2C(=O)N[C@H](C)C(=O)N(C)[C@@H]3Cc4ccc(cc4)Oc4cc(ccc4O)C[C@H](C(=O)N[C@@H](C)C(=O)N[C@@H](C)C(=O)N2C)N(C)C3=O)cc1.COc1ccc(C[C@H]2C(=O)N[C@H](C)C(=O)N(C)[C@@H]3Cc4ccc(cc4)Oc4cc(ccc4O)C[C@H](C(=O)N[C@@H](C)C(=O)N[C@@H](C)C(=O)N2C)N(C)C3=O)cc1.COc1ccc(C[C@H]2C(=O)N[C@H](C)C(=O)N(C)[C@@H]3Cc4ccc(cc4)Oc4cc(ccc4O)C[C@H](C(=O)N[C@@H](C)C(=O)N[C@@H](C)C(=O)N2C)N(C)C3=O)cc1.O.O.O.O.O [TPC-A] | – | – | – | – | – | – | – | – | – | – | – | – | – | – | – | – | 34.0(28.1-41.2) mg/kg | 121.4 | 187.4 | Pharmacological effect estinated [11]: emetic action; also recorded: anorexigenic action; also recorded: psychotropic action; also recorded: vasoconstrictive; also recorded: papaverine action; also recorded: antiper-; T/C ([5]; 2.78 mg/kg × 9): 138.7%; T/C ([5]; 5.56 mg/kg × 9): 231.2%; mice living more than 60 days (60<) ([5]; 5.56 mg/kg × 9): 2/6; T/C ([5]; 6.94 mg/kg × 9): 184.3%; mice living more than 60 days (60<) ([5]; 6.94 mg/kg × 9): 1/7; T/C ([14]; 5 mg/kg × 7): 179.6%; mice living more than 60 days (60<) ([14]; 5 mg/kg × 7): 2/7; T/C ([14]; 7 mg/kg × 7): 153.7%; mice living more than 60 days (60<) ([14]; 7 mg/kg × 7): 1/7; T/C ([14]; 10 mg/kg × 7): 127.8%
